The values that follow come from US20230150981A1, “N-HETEROARYLALKYL-2-(HETEROCYCLYL AND HETEROCYCLYLMETHYL) ACETAMIDE DERIVATIVES AS SSTR4 AGONISTS” (Takeda Pharmaceutical Compnay Limited, priority 2020, published 2023).

The target in assay [1] is T1, SSTR4 (Homo sapiens, UniProt P31391).
T1 construct: host or cells: CHO-K1
Briefly: Inhibition of forskolin stimulated cAMP in CHO-K1 cells overexpressing SSTR4. The note with it: read-out: SSTR4 Activity pEC50 (converted). The assay is classed as cell-based. The essentials:
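CHO-K1 cells overexpressing SSTR4 treated 30 min at room temperature with compound in Krebs Ringer buffer containing 0.5% BSA, 300 μM IBMX and 350 nM forskolin. Intracellular cAMP measured by HTRF LANCE Ultra (665/615 nm); pEC50 values reported.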

Assay [2] concerns the target T1, SSTR4. The assay can be described thus: SSTR4 I-125 somatostatin competition binding assay (CHO-K1 membranes). The note with it: competition with I-125 somatostatin, membranes from CHO-K1 overexpressing SSTR4; read-out: SSTR4 Binding pIC50 (converted). The essentials:
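CHO-K1 membranes overexpressing SSTR4 (1 μg/well) were incubated 60 min at room temperature with compound and I-125 somatostatin (0.2 nM in the compound mix) in 25 mM HEPES pH 7.4, 10 mM MgCl2, 1 mM CaCl2, 0.5% BSA. Bound radioligand was collected on PEI-soaked filters and scintillation-counted, with results reported as pIC50.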

In the next assay the target is T2, SSTR1 (Homo sapiens, UniProt P30872).
T2 construct: purchased Perkin Elmer ES-520-M400UA; host or cells: CHO-K1 membranes
T2 sequence (P30872 whole entry): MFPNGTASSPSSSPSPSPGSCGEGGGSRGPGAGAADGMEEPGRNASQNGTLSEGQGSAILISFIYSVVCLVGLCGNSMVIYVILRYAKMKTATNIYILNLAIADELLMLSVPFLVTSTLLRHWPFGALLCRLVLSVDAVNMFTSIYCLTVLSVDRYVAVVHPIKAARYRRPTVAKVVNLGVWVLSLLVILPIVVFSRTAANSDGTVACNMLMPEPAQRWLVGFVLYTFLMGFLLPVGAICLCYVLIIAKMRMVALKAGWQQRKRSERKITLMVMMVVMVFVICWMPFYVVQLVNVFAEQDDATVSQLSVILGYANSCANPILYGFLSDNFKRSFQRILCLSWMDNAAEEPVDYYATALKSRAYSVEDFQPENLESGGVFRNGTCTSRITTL
Briefly: SSTR1 I-125 somatostatin competition binding assay for selectivity versus SSTR1 (CHO-K1 membranes). The note with it: competition with I-125 somatostatin, membranes from CHO-K1 overexpressing SSTR1; read-out: SSTR1 Binding pIC50 (converted). The essentials: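 Competition binding used 10 μg CHO-K1 SSTR1 membranes and I-125 somatostatin, 0.4 nM in the compound mix before membranes were added. Buffer was 25 mM HEPES pH 7.4, 10 mM MgCl2, 1 mM CaCl2, 0.5% BSA. After 60 min at room temperature, bound tracer was filtered onto PEI-soaked filters and counted by scintillation; values are pIC50.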

T1 sequence (P31391 whole entry): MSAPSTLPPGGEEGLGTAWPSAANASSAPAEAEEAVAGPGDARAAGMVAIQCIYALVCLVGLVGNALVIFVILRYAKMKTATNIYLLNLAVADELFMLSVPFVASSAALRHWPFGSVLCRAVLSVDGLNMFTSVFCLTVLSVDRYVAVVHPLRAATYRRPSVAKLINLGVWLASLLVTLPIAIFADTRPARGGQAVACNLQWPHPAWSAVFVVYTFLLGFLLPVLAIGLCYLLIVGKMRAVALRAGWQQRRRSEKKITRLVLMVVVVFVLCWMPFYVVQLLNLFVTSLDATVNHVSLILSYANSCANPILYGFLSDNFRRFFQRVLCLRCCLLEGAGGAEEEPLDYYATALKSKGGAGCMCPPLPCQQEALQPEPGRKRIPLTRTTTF

On to `CC(C)[C@@H](CN1CCC1)C(=O)N[C@H](c1ccc(F)cc1)C(F)F` [Example 196, (S)-2-(azetidin-1-ylmethyl)-N-((R)-2,2-difluoro-1-(4-fluorophenyl)ethyl)-3-methylbutanamide], for which the EC50 at SSTR4 [1] is 0.2 nM. For the same molecule, the figures for the IC50 on SSTR4 [2] and on SSTR1 were 3.16 nM and 501 nM, respectively.
On the same counts, the results for `O=C(CCN1CCC1)N[C@H](c1cccc(Cl)c1)C(F)F` [Example 202, (R)-3-(azetidin-1-yl)-N-(1-(3-chlorophenyl)-2,2-difluoroethyl)propanamide] are 0.794 nM, 20 nM and 6310 nM.
For the molecule `CN1CCCC1CC(=O)NC(C)(C)c1nccc2ccccc12` (stereo not drawn) [Example 203, N-(2-(isoquinolin-1-yl)propan-2-yl)-2-(1-methylpyrrolidin-2-yl)acetamide], the EC50 at SSTR4 [1] is 3.98 nM. The IC50 on SSTR4 [2] is 158 nM; on SSTR1 it was 3980 nM.
For the molecule `CC[C@@H](CN1CCC1)C(=O)N[C@H](c1ccc(F)cc1)C(F)F` [Example 204, (S)-2-(azetidin-1-ylmethyl)-N-((R)-2,2-difluoro-1-(4-fluorophenyl)ethyl)butanamide], the EC50 on SSTR4 [1] is 0.1 nM. Besides, the IC50 was 3.16 nM on SSTR4 [2] and 631 nM at SSTR1.
